# Experimental data published in patent US20100233278A1, “RAPIDLY DISINTEGRATING SOLID PREPARATION” (priority 2007, published 2010).
# Assay: dissolution rate of saccharide or sugar alcohol, 6-vessel dissolution tester
# Assay type: physicochemical
# Details: 2 g in desalted water 500 mL, 37° C., paddle 50 min^−1; rate constant k per surface area
# Method: In the present invention, the “dissolution rate” is obtained by using a 6-vessel dissolution tester (NTR-6100, Toyama Sangyo Co., Ltd.). The paddle rotation speed was 50 min^−1, and saccharide or sugar alcohol was added by 2 g to desalted water (500 mL), which is a test solution, heated to 37° C. Samples were taken at given time intervals after addition, changes in the dry weight of the samples per unit time were calculated, and dissolution rate constant k was calculated by the Noyes-Whitney equation. The dissolution rate constant k was converted to value per surface area of each saccharide or sugar alcohol and the obtained value was taken as dissolution rate [1/min·m^2]. As the specific surface area, the value measured by a laser diffraction particle size analyzer [Mastersizer] of Malvern Instruments Ltd. was used. The tablets obtained in the Examples and Comparative Examples were measured for hardness, disintegration time in the oral cavity, disintegration time (ODT) by the following test methods. In addition, the dissolution rate of saccharide and sugar alcohol used in the Examples and Comparative Examples was measured. • (1) The hardness was measured by a tablet hardness tester (WHT-2ME, Pharma Test). The test was performed using 3 or 10 tablets, and the average value is shown. • (2) As for the disintegration time in the oral cavity, the tablet of the present invention was placed in the oral cavity of a healthy adult without water, and the time necessary for complete disintegration of the tablet with only saliva was measured. • (3) The disintegration time (ODT) was measured by an Orally Disintegrating Tablet Tester (ODT-101, Toyama Sangyo Co., Ltd.). As for the measurement conditions, a weight (15 g, weight diameter 15 mm) was used at a rotating speed of 50 rpm, and an average of 3 measures was taken. • (4) The “dissolution rate” was measured by using a 6-vessel dissolution tester (NTR-6100, Toyama Sangyo Co., Ltd.). The paddle rotation speed was 50 min^−1, and saccharide or sugar alcohol was added by 2 g to desalted water (500 mL), which is a test solution, heated to 37° C. Samples were taken at given time intervals after addition, changes in the dry weight of the samples per unit time were calculated, and dissolution rate constant k was calculated by the Noyes-Whitney equation. The dissolution rate constant k was converted to value per the surface area of each saccharide or sugar alcohol and the obtained value was taken as dissolution rate [1/min·m^2]. As the specific surface area, the value measured by a laser diffraction particle size analyzer [Mastersizer] of Malvern Instruments Ltd. was used.
row,SMILES,dissolution rate
1,OC[C@@H](O)[C@@H](O)[C@H](O)[C@H](O)CO [α-form mannitol],4.62 1/min·m^2
2,OC[C@@H](O)[C@@H](O)CO [Erythritol],11.99 1/min·m^2
3,OC[C@H]1O[C@@H](O[C@H]2[C@H](O)[C@@H](O)C(O)O[C@@H]2CO)[C@H](O)[C@@H](O)[C@H]1O (stereo partly drawn) [Lactose],5.68 1/min·m^2
4,OC[C@H]1O[C@@](CO)(O[C@H]2O[C@H](CO)[C@@H](O)[C@H](O)[C@H]2O)[C@@H](O)[C@@H]1O [Purification sucrose],2.80 1/min·m^2
5,OC[C@@H](O)[C@@H](O)[C@H](O)[C@H](O)CO [β-form mannitol],2.28 1/min·m^2
6,OC[C@@H](O)[C@H](O)[C@@H](O)CO [Xylitol],3.57 1/min·m^2
